Test results published in article PMC5390467, “Novel lead structures with both Plasmodium falciparum gametocytocidal and asexual blood stage activity identified from high throughput compound screening” (Malaria Journal, 2017).

Assays:
[1] = target: T1, PRKG2 (Homo sapiens, UniProt Q13237); test: Kinome scan profile; assay type: binding; conditions: 10 μM
T1 construct: purchased DiscoverX (KINOMEscan)
T1 sequence (Q13237 1-762): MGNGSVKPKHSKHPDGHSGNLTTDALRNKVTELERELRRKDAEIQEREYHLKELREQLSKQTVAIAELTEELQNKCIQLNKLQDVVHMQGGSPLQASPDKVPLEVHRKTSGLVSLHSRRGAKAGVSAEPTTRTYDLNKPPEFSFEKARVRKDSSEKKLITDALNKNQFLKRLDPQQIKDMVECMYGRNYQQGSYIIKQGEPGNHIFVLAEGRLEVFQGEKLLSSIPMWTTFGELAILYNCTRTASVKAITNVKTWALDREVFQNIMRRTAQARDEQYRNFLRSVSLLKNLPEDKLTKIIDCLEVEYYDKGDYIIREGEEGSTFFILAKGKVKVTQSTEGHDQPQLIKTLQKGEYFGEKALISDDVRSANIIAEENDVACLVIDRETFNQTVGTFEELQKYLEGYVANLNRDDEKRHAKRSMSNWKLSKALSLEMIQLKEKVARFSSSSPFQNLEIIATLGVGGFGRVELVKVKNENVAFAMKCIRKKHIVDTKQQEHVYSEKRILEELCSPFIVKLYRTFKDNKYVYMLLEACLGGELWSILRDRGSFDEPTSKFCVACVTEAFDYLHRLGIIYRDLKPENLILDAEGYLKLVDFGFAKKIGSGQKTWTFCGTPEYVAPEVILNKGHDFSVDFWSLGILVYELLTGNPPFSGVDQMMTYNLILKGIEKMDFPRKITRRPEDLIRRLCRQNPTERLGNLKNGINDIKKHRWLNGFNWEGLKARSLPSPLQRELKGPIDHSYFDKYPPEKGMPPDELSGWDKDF

[2] = target: T2, SNRK (Homo sapiens, UniProt Q9NRH2); test: Kinome scan profile; assay type: binding; conditions: 10 μM
T2 construct: purchased DiscoverX (KINOMEscan)
T2 sequence (Q9NRH2 1-765): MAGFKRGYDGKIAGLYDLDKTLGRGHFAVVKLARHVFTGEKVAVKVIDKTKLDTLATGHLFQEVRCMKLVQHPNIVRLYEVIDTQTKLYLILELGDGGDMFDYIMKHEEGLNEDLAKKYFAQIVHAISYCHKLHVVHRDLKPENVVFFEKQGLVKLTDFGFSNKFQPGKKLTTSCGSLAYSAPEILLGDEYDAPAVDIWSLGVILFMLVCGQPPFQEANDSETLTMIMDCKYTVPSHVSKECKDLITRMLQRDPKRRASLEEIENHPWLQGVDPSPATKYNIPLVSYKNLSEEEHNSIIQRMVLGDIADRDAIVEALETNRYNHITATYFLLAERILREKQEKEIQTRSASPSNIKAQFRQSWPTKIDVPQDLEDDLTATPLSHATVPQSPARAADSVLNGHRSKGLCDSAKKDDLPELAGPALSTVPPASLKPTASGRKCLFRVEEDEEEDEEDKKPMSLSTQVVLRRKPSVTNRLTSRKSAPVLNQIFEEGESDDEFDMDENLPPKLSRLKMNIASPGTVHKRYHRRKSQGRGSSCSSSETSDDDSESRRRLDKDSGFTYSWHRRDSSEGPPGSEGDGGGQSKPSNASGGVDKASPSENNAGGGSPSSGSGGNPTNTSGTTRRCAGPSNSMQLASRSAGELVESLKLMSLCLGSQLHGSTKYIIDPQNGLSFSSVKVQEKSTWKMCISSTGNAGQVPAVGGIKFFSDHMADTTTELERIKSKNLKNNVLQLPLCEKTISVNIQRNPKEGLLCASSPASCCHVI

[3] = target: T3, ALK(C1156Y) (Homo sapiens, UniProt Q9UM73, C1156Y); test: Kinome scan profile; assay type: binding; conditions: 10 μM
T3 construct: purchased DiscoverX (KINOMEscan)
T3 sequence (Q9UM73 19-1620 C1156Y): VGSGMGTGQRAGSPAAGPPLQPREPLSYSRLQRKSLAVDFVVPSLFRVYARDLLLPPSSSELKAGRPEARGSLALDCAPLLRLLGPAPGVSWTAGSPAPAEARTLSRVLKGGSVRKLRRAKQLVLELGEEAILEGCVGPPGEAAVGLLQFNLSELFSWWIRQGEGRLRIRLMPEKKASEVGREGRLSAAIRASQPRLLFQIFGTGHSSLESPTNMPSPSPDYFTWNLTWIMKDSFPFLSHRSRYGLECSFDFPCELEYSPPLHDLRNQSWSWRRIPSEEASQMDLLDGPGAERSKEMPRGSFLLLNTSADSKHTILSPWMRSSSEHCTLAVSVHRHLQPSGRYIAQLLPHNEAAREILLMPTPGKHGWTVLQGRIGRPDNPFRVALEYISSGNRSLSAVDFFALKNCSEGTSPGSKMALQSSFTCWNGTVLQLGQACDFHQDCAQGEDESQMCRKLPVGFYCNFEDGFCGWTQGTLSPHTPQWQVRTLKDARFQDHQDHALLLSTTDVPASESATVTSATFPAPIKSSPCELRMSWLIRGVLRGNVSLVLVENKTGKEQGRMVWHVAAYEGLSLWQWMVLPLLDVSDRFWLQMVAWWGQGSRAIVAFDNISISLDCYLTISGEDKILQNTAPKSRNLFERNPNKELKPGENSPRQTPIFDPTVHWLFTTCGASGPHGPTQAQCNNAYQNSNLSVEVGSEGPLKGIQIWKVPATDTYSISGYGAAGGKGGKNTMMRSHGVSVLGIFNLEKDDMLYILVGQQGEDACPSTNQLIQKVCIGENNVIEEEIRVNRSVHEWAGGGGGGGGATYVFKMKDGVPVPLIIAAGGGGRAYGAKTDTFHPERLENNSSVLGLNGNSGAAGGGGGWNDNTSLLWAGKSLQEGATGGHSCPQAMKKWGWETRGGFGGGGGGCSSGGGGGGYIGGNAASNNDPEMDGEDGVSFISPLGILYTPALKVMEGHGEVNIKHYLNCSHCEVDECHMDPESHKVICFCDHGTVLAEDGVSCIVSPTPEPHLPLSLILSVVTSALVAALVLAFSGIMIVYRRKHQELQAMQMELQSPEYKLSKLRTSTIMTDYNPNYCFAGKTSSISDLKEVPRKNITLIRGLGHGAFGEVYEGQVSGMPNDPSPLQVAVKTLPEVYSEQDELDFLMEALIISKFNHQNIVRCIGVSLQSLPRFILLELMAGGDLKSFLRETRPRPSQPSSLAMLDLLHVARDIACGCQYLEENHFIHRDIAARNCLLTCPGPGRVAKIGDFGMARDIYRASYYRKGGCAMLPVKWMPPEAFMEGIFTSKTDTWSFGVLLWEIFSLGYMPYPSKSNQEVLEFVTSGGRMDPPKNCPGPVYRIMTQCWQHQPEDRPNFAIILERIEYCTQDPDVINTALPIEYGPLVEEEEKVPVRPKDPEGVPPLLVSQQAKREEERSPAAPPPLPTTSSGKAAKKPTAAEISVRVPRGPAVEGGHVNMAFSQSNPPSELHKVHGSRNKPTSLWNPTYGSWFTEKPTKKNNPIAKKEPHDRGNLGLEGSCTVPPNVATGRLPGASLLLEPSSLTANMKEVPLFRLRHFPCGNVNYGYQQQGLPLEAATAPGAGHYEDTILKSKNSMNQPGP

[4] = target: T4, MAP3K3 (Homo sapiens, UniProt Q99759); test: Kinome scan profile; assay type: binding; conditions: 10 μM
T4 construct: purchased DiscoverX (KINOMEscan)
T4 sequence (Q99759 1-626): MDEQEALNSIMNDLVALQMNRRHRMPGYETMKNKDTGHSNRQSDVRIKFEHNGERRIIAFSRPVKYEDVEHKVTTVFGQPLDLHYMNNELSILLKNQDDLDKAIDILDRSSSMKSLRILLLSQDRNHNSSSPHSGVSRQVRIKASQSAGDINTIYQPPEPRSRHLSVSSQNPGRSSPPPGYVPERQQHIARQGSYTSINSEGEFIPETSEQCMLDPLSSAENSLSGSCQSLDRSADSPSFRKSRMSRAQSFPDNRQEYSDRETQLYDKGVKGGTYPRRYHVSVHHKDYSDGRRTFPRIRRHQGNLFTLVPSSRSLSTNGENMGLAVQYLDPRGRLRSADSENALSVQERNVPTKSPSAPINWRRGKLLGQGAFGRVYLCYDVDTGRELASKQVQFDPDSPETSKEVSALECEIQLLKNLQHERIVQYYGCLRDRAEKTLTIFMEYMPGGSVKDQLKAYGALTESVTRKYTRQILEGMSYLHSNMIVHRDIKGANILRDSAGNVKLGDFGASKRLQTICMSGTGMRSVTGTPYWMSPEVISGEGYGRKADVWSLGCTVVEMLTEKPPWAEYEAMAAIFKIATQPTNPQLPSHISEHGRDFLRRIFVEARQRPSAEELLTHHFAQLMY

[5] = target: T5, KIT(A829P) (Homo sapiens, UniProt P10721, A829P); test: Kinome scan profile; assay type: binding; conditions: 10 μM
T5 construct: purchased DiscoverX (KINOMEscan)
T5 sequence (P10721 26-976 A829P): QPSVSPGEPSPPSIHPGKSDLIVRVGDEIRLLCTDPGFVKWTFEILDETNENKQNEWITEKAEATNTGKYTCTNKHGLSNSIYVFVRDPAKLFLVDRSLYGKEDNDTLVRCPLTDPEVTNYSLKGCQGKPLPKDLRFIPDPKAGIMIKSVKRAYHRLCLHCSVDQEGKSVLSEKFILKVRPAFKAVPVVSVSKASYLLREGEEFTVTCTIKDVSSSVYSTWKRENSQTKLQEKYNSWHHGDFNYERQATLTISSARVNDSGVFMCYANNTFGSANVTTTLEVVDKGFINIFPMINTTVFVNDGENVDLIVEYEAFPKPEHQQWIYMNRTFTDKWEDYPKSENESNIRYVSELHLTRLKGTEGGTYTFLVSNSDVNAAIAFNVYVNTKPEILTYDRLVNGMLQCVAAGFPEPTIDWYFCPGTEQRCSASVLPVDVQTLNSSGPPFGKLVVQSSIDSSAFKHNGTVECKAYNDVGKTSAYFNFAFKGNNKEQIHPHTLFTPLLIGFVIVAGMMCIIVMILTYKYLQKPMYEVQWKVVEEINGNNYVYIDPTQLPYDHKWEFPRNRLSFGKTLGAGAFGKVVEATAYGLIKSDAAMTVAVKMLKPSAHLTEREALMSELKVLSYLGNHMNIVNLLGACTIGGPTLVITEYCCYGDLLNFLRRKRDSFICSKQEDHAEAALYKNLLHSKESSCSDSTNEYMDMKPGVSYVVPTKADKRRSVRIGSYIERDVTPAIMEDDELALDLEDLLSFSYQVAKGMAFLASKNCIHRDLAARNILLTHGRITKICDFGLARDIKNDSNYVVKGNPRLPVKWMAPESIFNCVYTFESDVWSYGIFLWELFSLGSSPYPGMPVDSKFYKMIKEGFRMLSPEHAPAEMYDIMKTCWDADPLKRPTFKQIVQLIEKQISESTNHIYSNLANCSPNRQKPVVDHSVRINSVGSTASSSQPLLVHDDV

[6] = test system: HepG2 cells; test: HepG2 cytotoxicity assay (AlamarBlue); assay type: cell-based, human; conditions: HepG2 cells, 72 h, AlamarBlue, up to 46 µM
Method: Asexual parasites of P. falciparum strain NF54 were cultured as described previously. Briefly, parasites were maintained in RPMI 1640 medium containing 10% positive human serum + erythrocytes (5% haematocrit), 2.5% sodium bicarbonate and 11 µg/mL gentamicin at 37 °C with 5% CO2, 5% O2 and 90% N2. Gametocyte cultures were set up at 0.1% parasitaemia and on days 9–10 treated with 50 mM N-acetylglucosamine (NAG) to block further asexual growth. Stage III–V gametocytes were isolated by Percoll density gradient centrifugation on day 12 and returned to culture for 24 h before being used in the assay. At the time of the assay over 73% of the gametocytes were stage IV or V (Additional file 1). HepG2 cells (ATCC, cat. no. 77400) were cultured in 175-cm^2 tissue culture flasks with 30 ml growth medium at 37 °C in a 5% CO2 and 5% O2 humidified atmosphere. Growth medium was made with Dulbecco’s Modified Eagle Medium with 10% fetal bovine serum (FBS). Growth medium was replaced every other day and cells were passaged at 75% confluence.
Drug activity on HepG2 was tested using an AlamarBlue assay as previously described. Briefly, 5 μL/well of HepG2 cells were dispensed with a seeding density of 1000 cells/well using the Multidrop Combi. 23 nL compound was transferred using the NX-TR Pintool. After 72 h incubation under the standard culture condition, 5 μL/well of 2X AlamarBlue dye was added to the cells, the plates were incubated for 2 h at 37 °C with 5% CO2 and then were read in a fluorescence detection mode (Ex = 525 nm, Em = 598 nm) on a ViewLux plate reader.

% Control, PRKG2 [1]: 32 % Control | % Control, SNRK [2]: 27 % Control | % Control, ALK(C1156Y) [3]: 28 % Control | % Control, MAP3K3 [4]: 34 % Control | % Control, KIT(A829P) [5]: 34 % Control
Compound: CCN1CCN(Cc2c(O)ccc3c(=O)c(Oc4ccccc4C(C)C)c(C(F)(F)F)oc23)CC1 [NCGC00100599]
HepG2, IC50 (dash = less than 25% cytotoxicity) [6]: – (Indicates compounds with less than 25% cytotoxicity at up to 46 µM)
